{"source": "paper PMC3119665", "about": "“A New Drug Design Targeting the Adenosinergic System for Huntington's Disease” (PLoS ONE, 2011)", "key": {"[1]": {"system": "R6/2 mice", "conditions": "cited from earlier work"}, "[2]": {"target": "T1, A2AR (Rattus norvegicus, UniProt P30543)", "T1 construct": "Treatment of PC12 cells with T1-11 dose-dependently elevated the cellular cAMP levels; endogenous in cells; host or cells: PC12", "T1 sequence (P30543 whole entry)": "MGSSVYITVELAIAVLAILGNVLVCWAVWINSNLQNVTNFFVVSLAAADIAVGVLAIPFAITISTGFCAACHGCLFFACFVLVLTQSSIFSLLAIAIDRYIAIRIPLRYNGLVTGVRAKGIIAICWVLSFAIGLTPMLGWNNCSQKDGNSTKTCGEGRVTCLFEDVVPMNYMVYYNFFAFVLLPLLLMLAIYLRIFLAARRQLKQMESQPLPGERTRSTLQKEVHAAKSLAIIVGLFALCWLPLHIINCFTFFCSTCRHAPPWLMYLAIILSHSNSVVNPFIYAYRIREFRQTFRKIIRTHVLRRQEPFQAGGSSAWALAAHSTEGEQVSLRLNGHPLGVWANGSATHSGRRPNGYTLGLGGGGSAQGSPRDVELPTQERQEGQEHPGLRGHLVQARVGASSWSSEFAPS", "assay": "cAMP assay in PC12 cells", "format": "cell-based", "conditions": "PC12 cells, T1-11 10 µM, SCH 1 µM, 20 min", "description": "PC12 cells were plated at the density of 5×10^5 cells/well (on 12-well plates) and incubated with the indicated reagent(s) for the desired period of time. Cells were washed twice with ice-cold Locke's solution (150 mM NaCl, 5.6 mM KCl, 5 mM glucose, 1 mM MgCl2, and 10 mM HEPES, adjusted to pH 7.4). Cellular cAMP was extracted by adding 0.3 ml of 0.1 M HCl to each well and incubating this for 10 min on ice."}, "[3]": {"system": "PC12 cells", "assay": "MTT metabolism assay, serum-deprived PC12 cells", "format": "cell-based, rat", "conditions": "24 h", "description": "Survival was assessed by the 3-(4,5-dimethylthiazol-2-yl)-2,5-diphenyltetrazolium bromide (MTT) metabolism assay as described elsewhere, [65]. In brief, cells grown on 150-mm plates were washed three times with PBS and resuspended in DMEM. Suspended cells (1×10^4 cells) were plated on 96-well plates and treated with or without the indicated reagent. After incubation for 24 h, MTT (0.5 mg/ml) was added to the medium and incubated for 3 h. After discarding the medium, DMSO (100 µl) was then applied to the well to dissolve the formazan crystals derived from the mitochondrial cleavage of the tetrazolium ring by live cells. The absorbance at 570/630 nm in each well was measured on a micro-enzyme-linked immunosorbent assay reader."}, "[4]": {"target": "Adenosine transporter (ENT1)", "conditions": "ENT1 inhibitor reference value; no reference given; cited from earlier work"}}}
{"smiles": "CCNC(=O)[C@H]1O[C@@H](n2cnc3c(N)nc(NCCc4ccc(CCC(=O)O)cc4)nc32)[C@H](O)[C@@H]1O", "note": "[CGS]", "values": [{"measurement": "Effects on major HD symptoms (brain atrophy, striatal aggregates, deteriorated motor coordination)", "setting": "[1]", "result": "provides beneficial effects on several major HD symptoms"}]}
{"smiles": "Nc1nc2c(cnn2CCc2ccccc2)c2nc(-c3ccco3)nn12", "note": "[SCH58216]", "values": [{"measurement": "Effect on T1-11-induced elevation in the cAMP level", "setting": "[2]", "result": "effectively blocked the T1-11-induced elevation in the cAMP level"}, {"measurement": "Effect of A2AR antagonist on T1-11's prevention of serum deprivation-induced death", "setting": "[3]", "result": "blocked the effect of T1-11"}, {"measurement": "Motor coordination", "setting": "[1]; treatment for 1 week", "result": "worsened motor coordination"}]}
{"smiles": "O=[N+]([O-])c1ccc(CSc2ncnc3c2ncn3[C@@H]2O[C@H](CO)[C@@H](O)[C@H]2O)cc1", "note": "[NBTI, 6-[(4-nitrobenzyl)thio]-9-β-D-ribofuranosylpurine]", "values": [{"measurement": "Ki", "setting": "[4]", "result": 850, "unit": "pM"}]}
{"smiles": "Nc1nc(NCCc2ccc(O)cc2)nc2nc(-c3ccco3)nn12", "note": "[ZM241385]", "values": [{"measurement": "Effect of A2AR antagonist on T1-11's prevention of serum deprivation-induced death", "setting": "[3]", "result": "blocked the effect of T1-11"}]}
